Our source for the SPF value values is patent US20050106114A1, “Process for improving the sun protection factor of cellulosic fibre material” (priority 2002, published 2005).

Experiment [1] can be described thus: Sun Protection Factor of treated fabric, AS/NZS 4399:1996, Melbourne sunlight. Conditions: Cotton-cretone; bleached, then fresh bath with 0.01% UV absorber (102) followed by 0.2% compound (101), relative to fabric weight; average of 4 measurements. The source says: (§1) The sun protection factor is defined as the ratio of the harmful dose of UV energy on protected skin to the harmful dose of UV energy on unprotected skin. Accordingly, a sun protection factor is also a measure of the transmissivity of fibre materials untreated and of those treated with FWA's and reactive UV absorbers described in this invention.
(§2) The sun protection factor can be determined, for example, by the method described by B. L. Diffey and J.Robson in J.Soc.Cosmet.Chem., 40, 127-133 (1989).
(§3) Two samples each of 10 g. of a pre-washed cellulose fabric (cotton cretonne) are treated in an AHIBA® dyeing machine for 60 minutes at 95° C. at a liquor ratio of 1:20 in two different aqueous liquors.
(§4) A) 3.0 ml/l hydrogen peroxide 35% • 2.0 ml/l sodium silicate 38° Bé • 2.0 ml/l caustic soda 36° Bé • 0.5 g/l ULTRAVON EL
(§5) B) The same liquor as in A), but containing additionally • 0.012% compound of formula (101) according to Example 1.
Two samples each of 10 g. of a pre-washed cellulose fabric (cotton cretonne or cotton poplin, respectively) are treated in an AHIBA® dyeing machine for 60 minutes at 95° C. at a liquor ratio of 1:20 in an aqueous liquor containing:
The samples are then treated for 10 minutes at 40° C. at a liquor ratio of 1:20 in a fresh bath containing 0.01% (relative to the weight of the fabric) of the compound of the formula [drawing 25] […]

Test in experiment [2]: as above
The settings on record: Cotton-Poplin; bleached, then fresh bath with 0.01% UV absorber (102) followed by 0.2% compound (101), relative to fabric weight; average of 4 measurements.
Excerpt: as §1, §2, §3, §4, §5
If the procedure of Example 9 is repeated, but with samples of different cellulose fabric (cotton poplin) the results of the following table are obtained.
Two samples each of 10 g. of a pre-washed cellulose fabric (cotton cretonne or cotton poplin, respectively) are treated in an AHIBA® dyeing machine for 60 minutes at 95° C. at a liquor ratio of 1:20 in an aqueous liquor containing: […]

As for `CCOc1ccc(NC(=O)C(=O)Nc2ccc(Nc3nc(Cl)nc(Nc4ccc(S(=O)(=O)CCOS(=O)(=O)[O-])cc4)n3)cc2)cc1S(=O)(=O)[O-].[Na+].[Na+]` [compound (102)], the SPF value result in experiment [1] and in experiment [2] was “additional improvement” in each case.
